Laboratory results from patent US20010000177A1, “Novel class of thiomorpholino substituted thiazoles” (priority 1999, published 2001).
≈ marks a conversion by molar mass, not a printed value.

Assays:
Type in all cases: cell-based
[1] = tested on: Candida and Cryptococcus strains (organism not given); assay: Broth microdilution antifungal activity, Table II first MIC/MCC column pair; settings: first column pair of Table II; for MIC = Minimum inhibitory concentration (50% Inhibition): 48 hrs, 35° C., YNB broth pH 7.0; for MCC = Minimum cytolytic concentration: subculture on SDA plate
Protocol: (§1) Organisms: Three strains of Candida (Candida parpsilosis, Candida tropicalis, Candida albicans-ATCC 36082) as well as Cryptococcus neoformans were used for the initial testing. […] All clinical strains used in this study were blood culture isolates from the Clinical Microbiology Laboratory of Harbor-UCLA Medical Center, Torrance, Calif. The organisms were maintained on Sabourahd Dextrose Agar slants at 4° C. For experimentation, singlet suspensions of each organism were prepared by growing the yeast overnight at 27° C. on a rotating drum in yeast-nitrogen base broth (YNB) with amino acids (Difco, Detroit, Mich.), pH 7.0 with 0.05M morpholinepropanesulfonic acid (MOPS). The suspension was then centrifuged and washed twice with 0.85% NaCl. This was followed by sonication of the washed cell suspension for 4s (Branson Sonifier, model 350, Danbury, Conn.). The singlet blastospores were counted in a hemocytometer and adjusted to the desired concentration in 0.85% NaCl.
(§2) Antifungal Activity: The antifungal activity of the compounds and Fluconazole against the Candida and Cryptococcus strains were determined using a modification of a broth microdilution technique. Test compounds were diluted in DMSO to a 1.0 mg/ml ratio then diluted to 64 μg/ml in YNB broth, pH 7.0 with MOPS (Fluconazole was used as the control). This was to provide a working solution of each compound. Using a 96-well plate, wells 1 and 3 through 12 were prepared with YNB broth, […] dilutions of the compound solution were made in wells 2 through 11 (concentration ranges were 64 to 0.125 μg/ml). Well one served as a sterility control and blank for the spectrophotometric assays. Well twelve served as a growth control. The microtiter plates were inoculated with 10 ul in each of well 2 through 11 (final inoculum size was 10^4 organisms/ml). Inoculated plates were incubated for 48 hrs., at 35° C. The MIC values were determined spectrophotometrically by measuring the absorbance at 420 nm (Automatic Microplate Reader, DuPont Instruments, Wilmington, Del.) after agitation of the plates for 2 min with a vortex-mixer (Vorte-Genie 2 Mixer, Scientific Industries, Inc., Bolemia, N.Y.). […] With the turbidity assay this was defined as the lowest drug concentration at which turbidity in the well was <50% of the control (IC50) Minimal Cytolytic Concentrations (MCC) were determined by subculturing all wells from the 96-well plate onto a Sabourahd Dextrose Agar (SDA) plate and incubated for 1 to 2 days at 35° C. and the viability was checked.

[2] = tested on: Candida and Cryptococcus strains (organism not given); assay: Broth microdilution antifungal activity, Table II third MIC/MCC column pair; settings: for MIC = Minimum inhibitory concentration (50% Inhibition): 48 hrs, 35° C., YNB broth pH 7.0; for MCC = Minimum cytolytic concentration: subculture on SDA plate
Protocol: (§3) Organisms: Three strains of Candida (Candida parpsilosis, Candida tropicalis, Candida albicans-ATCC 36082) as well as Cryptococcus neoformans were used for the initial testing. Active compounds were then tested against fluconazole resistant Candida albicans, Candida krusei, Torulopsis glabrata, and Cryptococcus neoformans along with Sporothrix shenkii and Aspergillus flavus in the secondary round of testing. All clinical strains used in this study were blood culture isolates from the Clinical Microbiology Laboratory of Harbor-UCLA Medical Center, Torrance, Calif. The organisms were maintained on Sabourahd Dextrose Agar slants at 4° C. For experimentation, singlet suspensions of each organism were prepared by growing the yeast overnight at 27° C. on a rotating drum in yeast-nitrogen base broth (YNB) with amino acids (Difco, Detroit, Mich.), pH 7.0 with 0.05M morpholinepropanesulfonic acid (MOPS). The suspension was then centrifuged and washed twice with 0.85% NaCl. This was followed by sonication of the washed cell suspension for 4s (Branson Sonifier, model 350, Danbury, Conn.). The singlet blastospores were counted in a hemocytometer and adjusted to the desired concentration in 0.85% NaCl.
as §2

[3] = tested on: Candida and Cryptococcus strains (organism not given); assay: Broth microdilution antifungal activity, Table II fourth MIC/MCC column pair; settings: fourth column pair of Table II; for MIC = Minimum inhibitory concentration (50% Inhibition): 48 hrs, 35° C., YNB broth pH 7.0; for MCC = Minimum cytolytic concentration: subculture on SDA plate
Protocol: as §1, §2

[4] = tested on: Candida and Cryptococcus strains (organism not given); assay: Broth microdilution antifungal activity, Table II second MIC/MCC column pair; settings: second column pair of Table II; for MIC = Minimum inhibitory concentration (50% Inhibition): 48 hrs, 35° C., YNB broth pH 7.0; for MCC = Minimum cytolytic concentration: subculture on SDA plate
Protocol: as §3, §2

CCCN(C)Cc1ccc(-c2csc(-c3ccc(OC)c([N+](=O)[O-])c3)n2)cc1 [Example 6k, 2-(4′-methoxy-3′-nitrophenyl)-4-[4″-(N-methyl-N-propylamino-methyl)phenyl]thiazole]
MIC = Minimum inhibitory concentration (50% Inhibition) [1]: 1 µg/mL (≈ 2.52 µM) | MCC = Minimum cytolytic concentration [1]: 2 µg/mL | MIC = Minimum inhibitory concentration (50% Inhibition) [2]: 1 µg/mL (≈ 2.52 µM) | MCC = Minimum cytolytic concentration [2]: 2 µg/mL | MIC = Minimum inhibitory concentration (50% Inhibition) [3]: 1 µg/mL (≈ 2.52 µM) | MCC = Minimum cytolytic concentration [3]: 1 µg/mL | MIC = Minimum inhibitory concentration (50% Inhibition) [4]: 0.5 µg/mL (≈ 1.26 µM) | MCC = Minimum cytolytic concentration [4]: 2 µg/mL

COc1ccc(-c2nc(-c3ccc(CN(C)C)cc3)cs2)cc1[N+](=O)[O-] [Example 6l, 2-(4′-methoxy-3′-nitrophenyl)-4-[4″-(dimethylaminomethyl)phenyl]thiazole]
MIC = Minimum inhibitory concentration (50% Inhibition) [1]: 0.5 µg/mL (≈ 1.35 µM) | MCC = Minimum cytolytic concentration [1]: 1 µg/mL | MIC = Minimum inhibitory concentration (50% Inhibition) [2]: 0.25 µg/mL (≈ 0.677 µM) | MCC = Minimum cytolytic concentration [2]: 1 µg/mL | MIC = Minimum inhibitory concentration (50% Inhibition) [3]: 0.25 µg/mL (≈ 0.677 µM) | MCC = Minimum cytolytic concentration [3]: 0.5 µg/mL | MIC = Minimum inhibitory concentration (50% Inhibition) [4]: 0.25 µg/mL (≈ 0.677 µM) | MCC = Minimum cytolytic concentration [4]: 0.5 µg/mL

CCCN(C)Cc1ccc(-c2csc(-c3ccc(I)cc3)n2)cc1 [Example 6g, 2-(4′-iodophenyl)-4-[4″-(N-methyl-N-propylaminomethyl)phenyl]-thiazole]
MIC = Minimum inhibitory concentration (50% Inhibition) [1]: 8 µg/mL (≈ 17.8 µM) | MCC = Minimum cytolytic concentration [1]: 4 µg/mL | MIC = Minimum inhibitory concentration (50% Inhibition) [2]: 8 µg/mL (≈ 17.8 µM) | MCC = Minimum cytolytic concentration [2]: 4 µg/mL | MIC = Minimum inhibitory concentration (50% Inhibition) [3]: 4 µg/mL (≈ 8.92 µM) | MCC = Minimum cytolytic concentration [3]: 4 µg/mL | MIC = Minimum inhibitory concentration (50% Inhibition) [4]: 4 µg/mL (≈ 8.92 µM) | MCC = Minimum cytolytic concentration [4]: 2 µg/mL

CN(C)Cc1ccc(-c2csc(-c3cccc(C#N)c3)n2)cc1 [Example 6o, 2-(3′-cyanophenyl)-4-[4″-(dimethylaminomethyl)phenyl]thiazole]
MIC = Minimum inhibitory concentration (50% Inhibition) [1]: 2 µg/mL (≈ 6.26 µM) | MCC = Minimum cytolytic concentration [1]: 4 µg/mL | MIC = Minimum inhibitory concentration (50% Inhibition) [2]: 2 µg/mL (≈ 6.26 µM) | MCC = Minimum cytolytic concentration [2]: >64 µg/mL | MIC = Minimum inhibitory concentration (50% Inhibition) [3]: 8 µg/mL (≈ 25 µM) | MCC = Minimum cytolytic concentration [3]: 16 µg/mL | MIC = Minimum inhibitory concentration (50% Inhibition) [4]: 2 µg/mL (≈ 6.26 µM) | MCC = Minimum cytolytic concentration [4]: 8 µg/mL

CCCN(C)Cc1ccc(-c2csc(-c3ccc(C)c([N+](=O)[O-])c3)n2)cc1 [Example 6p, 2-(4′-methyl-3′-nitrophenyl)-4-[4″-(N-methyl-N-propylaminomethyl)-phenyl]thiazole]
MIC = Minimum inhibitory concentration (50% Inhibition) [1]: 1 µg/mL (≈ 2.62 µM) | MCC = Minimum cytolytic concentration [1]: 8 µg/mL | MIC = Minimum inhibitory concentration (50% Inhibition) [2]: 2 µg/mL (≈ 5.24 µM) | MCC = Minimum cytolytic concentration [2]: 16 µg/mL | MIC = Minimum inhibitory concentration (50% Inhibition) [3]: 1 µg/mL (≈ 2.62 µM) | MCC = Minimum cytolytic concentration [3]: 4 µg/mL | MIC = Minimum inhibitory concentration (50% Inhibition) [4]: 1 µg/mL (≈ 2.62 µM) | MCC = Minimum cytolytic concentration [4]: 4 µg/mL

CN(C)Cc1ccc(-c2csc(-c3cccc([N+](=O)[O-])c3)n2)cc1 [Example 1aa, 2-(3′-nitrophenyl)-4-[4″-(dimethylaminomethyl)phenyl]-thiazole]
MIC = Minimum inhibitory concentration (50% Inhibition) [1]: 4 µg/mL (≈ 11.8 µM) | MCC = Minimum cytolytic concentration [1]: 4 µg/mL | MIC = Minimum inhibitory concentration (50% Inhibition) [2]: 4 µg/mL (≈ 11.8 µM) | MCC = Minimum cytolytic concentration [2]: 4 µg/mL | MIC = Minimum inhibitory concentration (50% Inhibition) [3]: 4 µg/mL (≈ 11.8 µM) | MCC = Minimum cytolytic concentration [3]: 4 µg/mL | MIC = Minimum inhibitory concentration (50% Inhibition) [4]: 4 µg/mL (≈ 11.8 µM) | MCC = Minimum cytolytic concentration [4]: 4 µg/mL

CN(C)CCNCc1ccc(-c2csc(-c3ccc(Cl)cc3)n2)cc1 [Example 1jj, 2-(4′-chlorophenyl)-4-[4″-(N-(2-dimethylaminoethyl)aminomethyl)phenyl]thiazole]
MIC = Minimum inhibitory concentration (50% Inhibition) [1]: 8 µg/mL (≈ 21.5 µM) | MCC = Minimum cytolytic concentration [1]: 8 µg/mL | MIC = Minimum inhibitory concentration (50% Inhibition) [2]: 4 µg/mL (≈ 10.8 µM) | MCC = Minimum cytolytic concentration [2]: 4 µg/mL | MIC = Minimum inhibitory concentration (50% Inhibition) [3]: 8 µg/mL (≈ 21.5 µM) | MCC = Minimum cytolytic concentration [3]: 8 µg/mL | MIC = Minimum inhibitory concentration (50% Inhibition) [4]: 4 µg/mL (≈ 10.8 µM) | MCC = Minimum cytolytic concentration [4]: 4 µg/mL
